Results from patent US8580995B2, “Lysine-based prodrugs of aspartyl protease inhibitors and processes for their preparation” (priority 2005, dated 2013).

Assay: Bioavailability: plasma concentration after single oral administration to rats
Type: in vivo, male Sprague-Dawley rats
Settings: for AUC: 50 mg/Kg po, 3 rats; for Detection of the administered phosphate compound itself in the blood samples / Delivery of parent drug (PL-100, PL-337) by aqueous dosing compared to non-aqueous formulations of PL-100 and PL-337: 50 mg/kg po; for Detection of the administered phosphate compound itself in the blood samples: delivered as aqueous solutions, HPLC-MS of plasma; for Delivery of parent drug (PL-100, PL-337) by aqueous dosing compared to non-aqueous formulations of PL-100 and PL-337: rats
Description: To assess the extent of in vivo cleavage of the phosphate group from the putative compounds, PL-100, PL-462 (based on PL-100), PL-337 and PL-515 (based on PL-337) compounds were administered per os (po) (50 mg/kg) to male Sprague-Dawley rats and their plasma concentration measured at different time intervals post-administration. All test articles (PL-100, PL-462, PL-337 and PL-515) were prepared in different vehicle at the final concentration of 25 mg/mL. The vehicle composition is as follows: (1) 20% ethanol; 50% propylene glycol; 0.05% w/v Tween 20 and water (Mix); (2) PBS buffer (PBS). Test articles were administered to male Sprague-Dawley rats at a single oral dose of 50 mg/kg. Each article was tested in three rats. Blood samples (0.2-0.3 mL) were collected at the post-dose time of 10, 20, 40, 60, 120, 180 and 360 minutes. The harvested blood was centrifuged to isolate plasma. The resulting plasma was separated and stored at −70° C. Plasma samples together with standards and quality control samples were treated to precipitate proteins, then analyzed by HPLC-MS, for the presence of PL-462, PL-100, PL-515 and PL-337.

[1] = vehicle Mix (20% ethanol; 50% propylene glycol; 0.05% w/v Tween 20 and water)
[2] = vehicle PBS, parent drug (PL-100 or PL-337) detected in plasma after dosing the phosphate compound

Structure (SMILES): COC(=O)N[C@H](C(=O)NCCCC[C@@H](CO)N(CC(C)C)S(=O)(=O)c1ccc(N)cc1)C(c1ccccc1)c1ccccc1 [PL-100, (1S,5S)-(1-{5-[(4-amino-benzenesulfonyl)-isobutyl-amino]-6-hydroxy-hexylcarbamoyl}-2,2-diphenyl-ethyl)-carbamic acid methyl ester]
- AUC [1]: 0.675 ± 0.171 μg/hr*ml

Structure (SMILES): COC(=O)N[C@H](C(=O)NCCCC[C@@H](CO)N(CC(C)C)S(=O)(=O)c1ccc(N)c(F)c1)C(c1ccccc1)c1ccccc1 [PL-337, (1-{5-[(4-amino-3-fluoro-benzenesulfonyl)-isobutyl-amino]-6-hydroxy-hexylcarbamoyl}-2,2-diphenyl-ethyl)-carbamic acid methyl ester]
- AUC [1]: 1.180 ± 0.196 μg/hr*ml

Structure (SMILES): COC(=O)N[C@H](C(=O)NCCCC[C@@H](COP(=O)([O-])[O-])N(CC(C)C)S(=O)(=O)c1ccc(N)cc1)C(c1ccccc1)c1ccccc1.[Na+].[Na+] [PL-462, (1S,5S)-(1-{5-[(4-amino-benzenesulfonyl)-isobutyl-amino]-6-phosphonooxy-hexylcarbamoyl}-2,2-diphenyl-ethyl)-carbamic acid methyl ester sodium salt]
- AUC [2]: 0.816 ± 0.295 μg/hr*ml
- Detection of the administered phosphate compound itself in the blood samples: None of the PL-462 and PL-515 compounds, delivered as aqueous solutions, are detected in the blood samples
- Delivery of parent drug (PL-100, PL-337) by aqueous dosing compared to non-aqueous formulations of PL-100 and PL-337: equivalent to slightly superior delivery

Structure (SMILES): COC(=O)N[C@H](C(=O)NCCCC[C@@H](COP(=O)(O)O)N(CC(C)C)S(=O)(=O)c1ccc(N)c(F)c1)C(c1ccccc1)c1ccccc1 [PL-515, (1S,5S)-(1-{5-[(4-amino-3-fluoro-benzenesulfonyl)-isobutyl-amino]-6-phosphonooxy-hexylcarbamoyl}-2,2-diphenyl-ethyl)-carbamic acid methyl ester]
- AUC [2]: 1.075 ± 0.625 μg/hr*ml
- Detection of the administered phosphate compound itself in the blood samples: None of the PL-462 and PL-515 compounds, delivered as aqueous solutions, are detected in the blood samples
- Delivery of parent drug (PL-100, PL-337) by aqueous dosing compared to non-aqueous formulations of PL-100 and PL-337: equivalent to slightly superior delivery
